Assay results reported in patent US10385038B2, “Pyridine substituted 2-aminopyridine protein kinase inhibitor crystal” (Chia Tai Tianqing Pharmaceutical Group Co., Ltd., priority 2015, dated 2019).
Like-named read-outs stand apart in the source and are kept apart here.

Tests used:
[1] = Stability test (Chinese Pharmacopoeia 2010, Appendix XIX C), total impurities by HPLC; format: physicochemical; settings: for Total impurities: citrate salt
Description: Stability was examined for 10 days under the conditions of 40° C., 60° C., 75% relative humidity (25° C.), 92.5% relative humidity (25° C.), or light illumination (5000 lx±500 lx), respectively. Samples were taken on day 0 and day 10, and the total impurities thereof were assayed by HPLC.
Column: Waters XBridge C18 (5 μm, 4.6×150 mm)
Mobile phase A: 0.01 M aqueous ammonium formate, to which 0.1% formic acid was added, and triethylamine was also added to adjust the pH to 7.4
Mobile phase B: acetonitrile
Linear gradient elution, with the following procedure: […]
Detection wavelength: diode array detector (280 nm)
Column temperature: 40° C.
Solvent: acetonitrile-water (1:1)
Preparation of the test solution: the solution was taken and accurately weighed, dissolved in a solvent and diluted to a solution at 1 mg per 1 mL, as the test solution.

[2] = Hygroscopicity test (Chinese Pharmacopoeia 2005, Appendix XIX J); format: physicochemical
[3] = Pharmacokinetic test, intragastric administration to Beagle dogs, plasma LC-MS/MS; format: in vivo; settings: for Cmax / AUC(0-t) / AUC(0-inf) / Tmax / bioavailability: both sexes, dog, plasma; for Cmax / AUC(0-t) / AUC(0-inf) / Tmax: po; for Cmax / AUC(0-t) / AUC(0-inf) / Tmax / t1/2z: suspension in 0.5% CMC-Na, citrate crystal 5.52 mg/kg, compound of Formula I 4 mg/kg (equimolar as base); for AUC(0-t): 0-36 h, trapezoidal; for AUC(0-inf): extrapolated Ct/λ; for Tmax: mean ± spread; for bioavailability: beagle, oral, crystal of citrate salt versus compound of Formula I
Text: In this study, LC-MS/MS was used to determine the plasma concentrations of drugs after the compound of Formula I and crystals of citrate salt thereof were intragastrically administered to Beagle dogs, and the effects of the crystals of citrate salt of the compound of Forumla I on the absorption behavior were observed.
The instrumentation system included the LC-10ADvp (Shimadzu, Japan) LC system and the TSQ Quantum Access triple quadrupole tandem mass spectrometer equipped with an electrospray ionization (ESI) source and Xcalibur 2.0.7 data processing system (Thermo Scientific, USA); the operating software was DAS2.1.1; other instruments were One hundred thousandth electronic balance (Mettler Toledo); Centrifugal rotary concentrator (LABCONCO, USA); High-speed refrigerated centrifuge (Model 5430-R, Eppendorf); Refrigerator (Model BCD-281E, Electrolux); Low temperature refrigerator (Model FORMA 700 SERIES, Thermo […]), etc.
Column: Thermo C18 LC column (size: 150 L×2.1 mm, 5 μm); column temperature: 40° C.; Mobile phase A: aqueous phase (containing 5 mM ammonium acetate and 0.1% formic acid); mobile phase B: methanol; gradient elution: 0.01 min, 20%; 0.5 min, 20%; 1.5 min, 80%; 4.5 min, 80%, 5 min, 20%, 6 min, stop (phase B). The flow rate was 0.3 mL/min. Benazeprilat was used as the internal standard for measurement.
The measurement was carried out by LC-MS/MS. The ion source was an ESI source and detection was performed in the positive ionization mode; the spray voltage was 3.8 kV; the heated capillary temperature was 350° C.; the pressure of the sheath gas (N2) was 35 Arb; the pressure of the auxiliary gas (N2) was 15 Arb; and voltages for collision induced dissociation (CID) were 25 eV and 25 eV (internal standard), respectively. The scanning mode was selective reaction monitoring (SRM), and the ion reactions for quantitative analysis were m/z 506.3-315.2 (the compound of Formula I) and m/z 397-351 (internal standard), respectively.
Six adult healthy beagle dogs, half male and half female, each weighing 9-11 kg, were randomly divided into two groups, and cross-administrated with the compound of Formula I and a crystal of citrate salt thereof.
After fasted for 12 h, the dogs were intragastrically administered with the crystal of citrate salt of the compound of Formula I and with the compound of Formula I (both were formulated with 0.5% CMC-Na as a suspension) at 5.52 mg/kg and 4 mg/kg (equimolar amounts based on the base form), respectively. A blank blood sample was taken before administration; and venous blood samples, about 1.0 ml each, were taken 0.5, 1, 2, 3, 4, 6, 8, 12, 14, 24, 36 hours after administration, placed in test tubes containing heparin, and centrifuged. The plasma fractions were isolated and stored at −80° C. After the washout period (7 days), the two groups of animals were each cross-administrated with the corresponding second drug, and the concentration of compound of Formula I in plasma samples was measured. The plasma concentration-time data for each test animal were input into a computer and the relevant pharmacokinetic parameters were calculated using the pharmacokinetic professional software DAS2.1.1, wherein Cmax and Tmax were measured values. AUC(0-t) and AUC(0-∞) are the area under the plasma concentration-time curve for the period of measurement and the total area under the plasma concentration-time curve, respectively. The AUC(0-t) was estimated by the trapezoidal method from the measured plasma concentrations, and the AUC(0-∞) was calculated from the AUC(0-t) plus the remaining area in the range t→∞, which can be calculated by the following equation: AUC(t-∞)=Ct/λ
In the above equation, Ct is the last plasma concentration measured, and λ is the elimination rate constant in the terminal portion of the plasma concentration.

[4] = 10 days at 40° C., 60° C., 75% RH, 92.5% RH or light

Compound: COc1cc(N2CCNC[C@@H]2C)ncc1-c1cnc(N)c(O[C@H](C)c2c(Cl)ccc(F)c2Cl)c1.O=C(O)CC(O)(CC(=O)O)C(=O)O [Example 8, 5-((R)-1-(2,6-dichloro-3-fluorophenyl)ethoxy)-4′-methoxy-6′-((S)-2-methylpiperazin-1-yl)-3,3′-bipyridin-6-amine citrate salt]
- Total impurities ([1]; 40° C., 10 days, listed as crystal form B of citrate salt of the compound of Formula I): 0.96%
- Total impurities ([1]; 60° C., 10 days, listed as crystal form B of citrate salt of the compound of Formula I): 1.19%
- Total impurities ([1]; Initial state, 0 day, listed as crystal form B of citrate salt of the compound of Formula I): 0.89%
- Total impurities ([1]; Light illumination (5000 lx±500 lx), 10 days, listed as crystal form B of citrate salt of the compound of Formula I): 0.99%
- Total impurities ([1]; Relative humidity 75%, 25° C., 10 days, listed as crystal form B of citrate salt of the compound of Formula I): 0.94%
- Total impurities ([1]; Relative humidity 92.5%, 25° C., 10 days, listed as crystal form B of citrate salt of the compound of Formula I): 0.95%
- Hygroscopic weight gain compared to the compound of Formula I and the other salts thereof (in words) [2]: obviously lower

Compound: COc1cc(N2CCNC[C@@H]2C)ncc1-c1cnc(N)c(O[C@H](C)c2c(Cl)ccc(F)c2Cl)c1 [Example 1, 5-((R)-1-(2,6-dichloro-3-fluorophenyl)ethoxy)-4′-methoxy-6′-((S)-2-methylpiperazin-1-yl)-3,3′-bipyridin-6-amine]
- Cmax [3]: 50 ± 20.8 ng/mL
- AUC(0-t) [3]: 502 ± 176 ng·h/mL
- AUC(0-inf) [3]: 517 ± 181 ng·h/mL
- Tmax [3]: 3.17 ± 1.6 h
- t1/2z [3]: 6.71 ± 2.55 h

Compound: COc1cc(N2CCNC[C@@H]2C)ncc1-c1cnc(N)c(O[C@H](C)c2c(Cl)ccc(F)c2Cl)c1.O=C(O)CC(O)(CC(=O)O)C(=O)O [Example 2, 5-((R)-1-(2,6-dichloro-3-fluorophenyl)ethoxy)-4′-methoxy-6′-((S)-2-methylpiperazin-1-yl)-3,3′-bipyridin-6-amine citrate salt]
- Total impurities ([1]; 40° C., 10 days, listed as crystal form A of citrate salt of the compound of Formula I): 0.77%
- Total impurities ([1]; 60° C., 10 days, listed as crystal form A of citrate salt of the compound of Formula I): 0.89%
- Stability (in words) [1, 4]: good stability
- Stability compared between crystal forms (in words) [1, 4]: better than that of crystal form B
- Total impurities ([1]; Initial state, 0 day, listed as crystal form A of citrate salt of the compound of Formula I): 0.76%
- Total impurities ([1]; Light illumination (5000 lx±500 lx), 10 days, listed as crystal form A of citrate salt of the compound of Formula I): 0.78%
- Total impurities ([1]; Relative humidity 75%, 25° C., 10 days, listed as crystal form A of citrate salt of the compound of Formula I): 0.79%
- Total impurities ([1]; Relative humidity 92.5%, 25° C., 10 days, listed as crystal form A of citrate salt of the compound of Formula I): 0.77%
- Degree and rate of absorption compared to the compound of Formula I (in words) [3]: better degree and rate of absorption
- bioavailability ([3]; from AUC(0-t), read-out: Relative bioavailability F1): 114 ± 68.3%
- bioavailability ([3]; from AUC(0-∞), read-out: Relative bioavailability F2): 113 ± 68.3%
- Cmax [3]: 63 ± 29.2 ng/mL
- AUC(0-t) [3]: 570 ± 343 ng·h/mL
- AUC(0-inf) [3]: 586 ± 353 ng·h/mL
- Tmax [3]: 2.33 ± 1.03 h
- t1/2z [3]: 5.94 ± 1.59 h
- Hygroscopic weight gain compared to the compound of Formula I and the other salts thereof (in words) [2]: obviously lower

Compound: COc1cc(N2CCNC[C@@H]2C)ncc1-c1cnc(N)c(O[C@H](C)c2c(Cl)ccc(F)c2Cl)c1.O=C(O)CC(O)(CC(=O)O)C(=O)O [Example 12, 5-((R)-1-(2,6-dichloro-3-fluorophenyl)ethoxy)-4′-methoxy-6′-((S)-2-methylpiperazin-1-yl)-3,3′-bipyridin-6-amine citrate salt]
- Hygroscopic weight gain compared to the compound of Formula I and the other salts thereof (in words) [2]: obviously lower
